Measured values: patent publication US9290764B2, “RNAi for the control of insects and arachnids” (Devgen NV, priority 2005, dated 2016)

B1: Bg001 concatemer 2: dsRNA concatemer, five times repeat of a 50 bp Bg001 fragment (SEQ ID NO 66) (nucleic acid)
DNA: CTTGGGTCGTGTTGGAACTGTAGTTAATCGAGAACGTCATCCTGGTTCCTCTTGGGTCGTGTTGGAACTGTAGTTAATCGAGAACGTCATCCTGGTTCCTCTTGGGTCGTGTTGGAACTGTAGTTAATCGAGAACGTCATCCTGGTTCCTCTTGGGTCGTGTTGGAACTGTAGTTAATCGAGAACGTCATCCTGGTTCCTCTTGGGTCGTGTTGGAACTGTAGTTAATCGAGAACGTCATCCTGGTTCCT
modifications: Concatemer

System: German cockroach, Blattella germanica
Assay: Cockroach laboratory trial of Bg001 dsRNA and Bg001 concatemer 2 (mortality and moulting to adult)
Type: in vivo
Details: for number of cockroaches successfully moulting to the adult stage, as a percentage of live insects (means±standard errors, n=4): pellets 1% w/w
Protocol: Table 3: Effect of dsRNA treatments on the number of cockroaches successfully moulting to the adult stage, as a percentage of live insects (means±standard errors, n=4)
FIG. 2: Mortality of B. germanica on artificial pellet diet. The concentration of dsRNA (Bg001, having the sequence as represented as SEQ ID NO 9, and Bg001 concatemer 2, having the sequence as represented as SEQ ID NO 68) in the pellets was 1% w/w. In this experiment, hexaflumuron (1% w/w) was tested as a positive control and solvent as a negative control.
Stock solutions of 1-10 μg/μl dsRNA in distilled water were prepared. Each dsRNA solution was diluted to the appropriate concentration and mixed with finely ground laboratory diet (Rat and mouse standard diet, B&K Universal Ltd, Hull, UK), which was previously heat treated in order to inactivate any enzymes. The mixture or formulation was formed into small pellets of equal weight (0.3 g) to achieve an end concentration of 0.1% to 2% w/w dsRNA and dried overnight at room temperature.
Newly hatched nymphs from the German cockroach, B. germanica were housed per 10 in plastic lidded containers (29±2° C., minimum 40% relative humidity, with a 12:12 light:dark photoperiod). Animals were starved 24 hours prior to exposure to the pellets. The cockroaches were assessed as live, moribund or dead twice a week until adulthood. The pellet was replaced with freshly prepared pellet once a week. dsRNA containing pellets, formulations, were compared with a negative control (solvent) and a positive control (1 or 2% imidacloprid, commonly used in commercially available cockroach baits).
Concatemers were designed for each target gene. Concatemers are synthetic tandem repeats of 50 to 100 bp dsfragments. In the present example, concatemers were designed by selecting the best possible fragments in regions with homology in protein family as well as at nucleotide level, in regions containing the best predicted siRNAs and in regions with between 40 and 60% GC content, preferably about 50% GC content, if possible.
For Bg001 two concatemers were designed consisting of a five times repeat of a 50 bp fragment, ie represented by SEQ ID NO 65 and 66, resulting in Bg001 concatemer 1 and Bg001 concatemer 2, herein represented respectively as SEQ ID NO 67 and SEQ ID NO 68, and one concatemer was designed consisting of a three times repeat of a 100 bp repeat, ie represented by SEQ ID NO 69, resulting in Bg001 concatemer 3, herein represented as SEQ ID NO 70. XbaI and SmaI flanking sites were added for cloning in a vector to produce dsRNA. These dsRNA constructs comprising the concatemers were tested in the cockroach laboratory trials.
For example at day 48, from the surviving cockroaches treated with Bg001 only 33.3 moulted to the adult stage whereas none of the cockroaches treated with Bg001 concatemer 2 did within this time as shown in Table 3.

Molecule | number of cockroaches successfully moulting to the adult stage, as a percentage of live insects (means±standard errors, n=4) (Day 38) | number of cockroaches successfully moulting to the adult stage, as a percentage of live insects (means±standard errors, n=4) (Day 41) | number of cockroaches successfully moulting to the adult stage, as a percentage of live insects (means±standard errors, n=4) (Day 45) | number of cockroaches successfully moulting to the adult stage, as a percentage of live insects (means±standard errors, n=4) (Day 48) | number of cockroaches successfully moulting to the adult stage, as a percentage of live insects (means±standard errors, n=4) (Day 52) | mortality compared to the negative control (solvent) (artificial pellet diet, dsRNA 1% w/w (FIG. 2))
O=C(NC(=O)c1c(F)cccc1F)Nc1cc(Cl)c(OC(F)(F)C(F)F)c(Cl)c1 [Positive control, hexaflumuron] | 0.0 (±0.0) % | 0.0 (±0.0) % | 0.0 (±0.0) % | 0.0 (±0.0) % | 0.0 (±0.0) % | –
B1 | 0.0 (±0.0) % | 0.0 (±0.0) % | 0.0 (±0.0) % | – | 0.0 (±0.0) % | significant higher
